Key:
full length human RXRα = target: T1, full length human RXRα (Homo sapiens, UniProt P19793); assay: Transient transfection assay in CV-1 cells (CRBP II-tk-SPAP reporter); assay type: cell-based; settings: CV-1 cells transfected with human RXRα and CRBP II-tk-SPAP reporter; 24 h incubation; SPAP activity
T1 construct: These cells were transfected with full length human RXRα; expressed in transfected cells; host or cells: CV-1 (monkey kidney cell line)
T1 sequence (P19793 1-462): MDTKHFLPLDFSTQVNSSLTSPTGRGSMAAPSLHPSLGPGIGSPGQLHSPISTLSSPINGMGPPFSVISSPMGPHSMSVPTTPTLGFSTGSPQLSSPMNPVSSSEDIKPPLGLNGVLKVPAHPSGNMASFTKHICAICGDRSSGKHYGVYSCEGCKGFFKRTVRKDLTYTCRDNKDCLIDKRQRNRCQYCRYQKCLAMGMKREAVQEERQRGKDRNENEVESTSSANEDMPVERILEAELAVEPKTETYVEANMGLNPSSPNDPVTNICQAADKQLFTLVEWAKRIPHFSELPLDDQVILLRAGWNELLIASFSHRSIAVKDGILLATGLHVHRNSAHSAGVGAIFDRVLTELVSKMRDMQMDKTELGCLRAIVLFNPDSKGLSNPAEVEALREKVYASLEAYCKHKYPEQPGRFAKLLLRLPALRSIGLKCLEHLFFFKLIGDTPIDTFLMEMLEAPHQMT
Description: Transcriptional activity of the compounds was measured in a monkey kidney cell line (CV-1). These cells were transfected with full length human RXRα and the natural response element, cellular retinol binding protein type II in a reporter gene construct, (CRBP II-tk-SPAP), consisting of HSV tk promoter, and the secreted placental alkaline phosphatase reporter gene. CV-1 cells were plated at a density of 24,000 cells per well in high glucose DMEM supplemented with 10% charcoal/dextran-treated FBS. Transfection mixes contained 4 ng of receptor expression vector, 8 ng of reporter plasmid, 25 ng of β-galactosidase expression vector (used as an internal control), and 43 ng of carrier plasmid. Transfections were performed with Lipofectamine according to the manufacturer's instructions. Drug dilutions were prepared in phenol red-free DMEM/F-12 with 15 mM HEPES supplemented with 10% charcoal-stripped, delipidated calf serum. Cells were incubated for 24 h in the presence of drugs, after which the medium was sampled and assayed for SPAP activity.
B-galactosidase, which measures transfection efficiency activity, was determined by using 3.6 mM o-nitrophenyl-D-galactopyranoside in 0.1 M sodium phosphate pH 7.2 buffer containing 0.13% Triton X-100 as substrate. These plates were read on a Molecular Devices Vmax spectrophotometer, at a 405 nm endpoint reading. Data were reduced using RoboFit.
The results were expressed as percent of maximum or fold activation calculated by the following formulas: fold activation=(((SPAP−SPAPsubstrate blank avg.)/(β-gal−β-gal substrate blank avg.))−DMSO vehicle avg.)/DMSO vehicle avg, and % max.=(fold activation of unknown/positive control fold activation avg.)×100.

hRXRα = target: T2, hRXRα (Homo sapiens, UniProt P19793); assay: Scintillation Proximity Assay (SPA) binding assay, 9-cis[3H]-retinoic acid radioligand; settings: RXRα ligand binding domain on SPA beads; radioligand 9-cis[3H]-retinoic acid; read-out: Apparent pKi (converted)
T2 construct: polyhistidine (N); made in house; host or cells: E. coli
T2 sequence (P19793 227-458 limits assumed): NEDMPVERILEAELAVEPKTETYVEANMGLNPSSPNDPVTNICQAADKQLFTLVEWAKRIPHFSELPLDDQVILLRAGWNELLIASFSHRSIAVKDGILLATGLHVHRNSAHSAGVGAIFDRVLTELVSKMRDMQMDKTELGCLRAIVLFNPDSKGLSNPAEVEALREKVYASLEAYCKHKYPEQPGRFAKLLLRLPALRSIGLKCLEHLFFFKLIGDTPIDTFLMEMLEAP
Description: The compounds were tested for their ability to bind to hRXRα using a Scintillation Proximity Assay (SPA) as is known in the art. The RXRα ligand binding domain (LBD) was expressed in E. coli as an amino-terminal polyhistidine tagged fusion protein. The LBD was then labeled with biotin and immobilized on streptavidin-modified scintillation proximity beads.
9-cis[3H]-Retinoic acid (9-cis) was the radioligand used for the assay. To each well to be assayed was added the desired concentration of the previously prepared solution of 9-cis previously incubated with receptor-coated SPA bead slurry. The plates were incubated for at least 1 hour at room temperature and bound radioactivity for each well was determined in a Wallac 1450 Microbeta counter.
In this specification, pKi=−log of the concentration of the test compound required to achieve an apparent Ki value according to the equation Ki=IC50/1+[L]/Kd, where IC50=the concentration of test compound required to inhibit 50% of the specific binding of the radioligand, [L] is the concentration of the radioligand used, and Kd is the dissociation constant for the radioligand at the receptor.

| SMILES | EC50 (full length human RXRα) [µM] | Ki (hRXRα) [µM] |
| --- | --- | --- |
| CC1(C)CCC(C)(C)c2cc(C3CCCc4oc(C(=O)O)cc43)ccc21 (stereo not drawn) [Example 13, 4-(5,5,8,8-Tetramethyl-5,6,7,8-tetrahydro-2-naphthalenyl)-4,5,6,7-tetrahydro-1-benzofuran-2-carboxylic acid] | > 1 | > 1 |
| CC1(C)CCC(C)(C)c2cc(Cc3csc(/C=C/C(=O)O)c3)ccc21 [Example 18, (2E)-3-{4-[(5,5,8,8-Tetramethyl-5,6,7,8-tetrahydro-2-naphthalenyl)methyl]-2-thienyl}-2-propenoic acid] | > 1 | > 1 |
| COc1cc2c(cc1Cc1coc(/C=C/C(=O)O)c1)C(C)(C)CCC2(C)C [Example 19, (2E)-3-{4-[(3-Methoxy-5,5,8,8-tetramethyl-5,6,7,8-tetrahydro-2-naphthalenyl)methyl]-2-furyl}-2-propenoic acid] | > 1 | > 1 |

— patent US7173134B2, “Selective RXR ligands” (SmithKline Beecham Corporation, priority 2001, dated 2007)
